Assay results from patent US12234245B2, “Sulfonimidamide compounds as inhibitors of interleukin-1 activity” (Genentech, Inc., priority 2018, dated 2025).
Read-outs that look alike come from different tables or passages of the source.

Columns and labels:
Type in all cases: cell-based
PBMCs = assay: CTG (CellTiter-Glo) viability assay in PBMCs; conditions: LPS and nigericin stimulated
Protocol: (§1) Human peripheral blood mononuclear cells (PBMCs), consisting of lymphocytes (T, B and NK cells), monocytes and dendritic cells, were freshly isolated from human peripheral blood from healthy donors. Cells were obtained through an IRB approved donor program by iXCells Biotechnologies where all the donors were tested for bacterial and viral infections. Cells were purified from peripheral blood using ficoll gradient centrifugation.
(§2) Fresh or cryopreserved PMBCs were seeded in V-bottom 96-well plate at 0.5-1×10^5 cells per well and incubated overnight at 37° C. with 5% CO2 in RPMI 1640 medium with GlutaMAX supplement, 4.5 g/L D-glucose, 10% Fetal Bovine Serum (FBS), […] Sodium Pyruvate, 1% Penicillin/Streptomycin, 10 mM HEPES and 0.05 mM of β-mercaptoethanol. Freshly isolated or cryopreserved KCs cells were seeded in flat-bottom 96-well plates at 0.6-1.5×10^5 cells/well and incubated overnight at 37° C. 5% CO2 in RPMI 1640 Medium with GlutaMAX supplement, FBS, 1% Penicillin/Streptomycin and 10 mM HEPES. The following day, the cells were primed with 100 ng/mL of lipopolysaccharides (LPS; Sigma Aldrich) in FBS-free RPMI 1640 for 3 h. After the priming step, the media was removed and PBMCs were pre-incubated with serial concentrations of test compounds (0.00017-10 uM) or vehicle (DMSO) for 30 min in FBS-free media prior to addition of the NLRP3 activator. Cells were then stimulated with 10 uM Nigericin (Sigma Aldrich; InvivoGen) for 1.5 h. Plates were centrifuged at 1,500 rpm for 3 minutes to pellet cells and supernatant was transferred into new plates for subsequent experiments.
Viability of compound treated cells was measured using CellTiter-Glo® assay (Promega, Madison, Wis.) that measures the ATP content of cells which is proportional to the number of live cells within a well. This is a counter-screen to establish that the reduction of IL-1β levels in LPS and nigericin stimulated and compound treated cells is not due to cytotoxicity, but rather through the inhibition of the inflammasome pathway. Compounds inhibiting NRLP3 inflammasome activation ultimately increase the viability of LPS and nigericin stimulated cells by blocking NLRP3 mediated pyroptosis that would otherwise lead to cell lysis.

NLRP3 inflammasome [1] = target: T1, NLRP3 inflammasome (Homo sapiens, UniProt Q96P20); assay: NLRP3 inflammasome activation assay in PBMCs, IL-1β release (ELISA / HTRF); set-up: were freshly isolated from human peripheral blood from healthy donors; StemCells Technologies; host or cells: primary human PBMCs, LPS-primed, nigericin-stimulated; conditions: LPS primed
Protocol: Some of the following assays were used to determine the inhibitory activity of the compounds on the NLRP3 inflammasome using a common inflammasome activation stimuli—nigericin.
as §1, §2
(§3) For ELISA assays cells were seeded into 96-well plates. Post study, supernatants were removed and the levels of mature IL-1β, IL18 and TNFα (Quantikine ELISA, R&D systems) were measured in cell conditioned media by ELISA according to manufacturer's instructions.
Human frozen PBMCs were purchased from StemCells Technologies. Cells were rapidly thawed in 37° C. water bath and resuspended in fresh assay media consisting of RPMI 1640 Medium containing 1% sodium pyruvate, 10 mM HEPES, 2.5 g/L glucose and 55 μM 2-Mercaptoethanol. Cell density was adjusted to 8.1×10^5 cells/mL. Cells were primed by adding lipopolysaccharide (Invivogen Ultrapure lipopolysaccharide from E. coli, tlrl-3pelps) at a final concentration of 100 ng/mL in cell suspension. 37 μL of cell suspension with LPS was seeded per well of a 384 well plate and incubated for 3 hours at 37° C. and 5% CO2. After priming, PBMCs were preincubated with serially diluted test compounds with starting concentration of 40 μM followed by 2-fold dilution for a 20-point curve or vehicle (DMSO) for 30 min in assay media at 37° C. and 5% CO2. Cells were then stimulated with 10 μM nigericin (Invivogen, tlrl-nig-5) for 90 min at 37° C. and 5% CO2 to activate NLRP3 dependent inflammasome pathway and IL-1β release in cell culture supernatant. Cells were centrifuged at 1200 RPM for 1 min and 40 μL of supernatant was transferred into fresh plates and stored at −80° C. until IL-1β analysis.
16 μL of supernatant was added to white 384 well HTRF plates, followed by addition of 4 μL of HTRF cocktail in each well. Plates were quickly centrifuged, sealed and incubated overnight at room temperature. Next day, HTRF signal was read on a Pherastar and ratio of 665/620 was calculated based on manufacturer's protocol to obtain concentration of IL-1β in cell culture supernatant.

TNFα = TNFα counter-screen in LPS and nigericin stimulated PBMCs; conditions: human PBMCs
Protocol: as §1, §2, §3
TNFα levels of LPS and nigericin stimulated cells were measured by HTRF assay (Cisbio, Bedford, MA). […] Measuring TNFalpha production also serves as a technical counter-screen to eliminate compounds that interfere with the HTRF reagents. Thus compounds that inhibit both IL-1β and TNFα levels are triaged for either being non-selective for inflammasome or interfering with the HTRF readout.

NLRP3 inflammasome [2] = target: T1, NLRP3 inflammasome; assay: THP-1 ASC-GFP speck assay; set-up: host or cells: THP-1 ASC-GFP cells, PMA-differentiated, LPS-primed, nigericin-stimulated; conditions: THP-1 ASC-GFP cells, PMA differentiated, LPS primed, 10 μM nigericin; read-out: THP1 ASC Speck IC50
How it was run: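 PMA-differentiated (500 ng/ml, overnight) THP-1 ASC-GFP cells primed with 1 μg/mL LPS for 3 h, preincubated 30 min with compound (top 40 μM, 2-fold, 20 points), then stimulated with 10 μM nigericin for 90 min at 37 °C. After fixation and Hoechst staining, imaging gave the percentage of cells bearing a GFP ASC speck.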

[3] = 10 uM nigericin, read-out: PBMC IL-1 β IC50
[4] = PBMC, read-out: PBMC TNF α IC50
[5] = 10 μM nigericin, read-out: PBMC IL-1β IC50
[6] = human PBMCs, read-out: PBMC CTG IC50

T1 sequence (Q96P20 whole entry): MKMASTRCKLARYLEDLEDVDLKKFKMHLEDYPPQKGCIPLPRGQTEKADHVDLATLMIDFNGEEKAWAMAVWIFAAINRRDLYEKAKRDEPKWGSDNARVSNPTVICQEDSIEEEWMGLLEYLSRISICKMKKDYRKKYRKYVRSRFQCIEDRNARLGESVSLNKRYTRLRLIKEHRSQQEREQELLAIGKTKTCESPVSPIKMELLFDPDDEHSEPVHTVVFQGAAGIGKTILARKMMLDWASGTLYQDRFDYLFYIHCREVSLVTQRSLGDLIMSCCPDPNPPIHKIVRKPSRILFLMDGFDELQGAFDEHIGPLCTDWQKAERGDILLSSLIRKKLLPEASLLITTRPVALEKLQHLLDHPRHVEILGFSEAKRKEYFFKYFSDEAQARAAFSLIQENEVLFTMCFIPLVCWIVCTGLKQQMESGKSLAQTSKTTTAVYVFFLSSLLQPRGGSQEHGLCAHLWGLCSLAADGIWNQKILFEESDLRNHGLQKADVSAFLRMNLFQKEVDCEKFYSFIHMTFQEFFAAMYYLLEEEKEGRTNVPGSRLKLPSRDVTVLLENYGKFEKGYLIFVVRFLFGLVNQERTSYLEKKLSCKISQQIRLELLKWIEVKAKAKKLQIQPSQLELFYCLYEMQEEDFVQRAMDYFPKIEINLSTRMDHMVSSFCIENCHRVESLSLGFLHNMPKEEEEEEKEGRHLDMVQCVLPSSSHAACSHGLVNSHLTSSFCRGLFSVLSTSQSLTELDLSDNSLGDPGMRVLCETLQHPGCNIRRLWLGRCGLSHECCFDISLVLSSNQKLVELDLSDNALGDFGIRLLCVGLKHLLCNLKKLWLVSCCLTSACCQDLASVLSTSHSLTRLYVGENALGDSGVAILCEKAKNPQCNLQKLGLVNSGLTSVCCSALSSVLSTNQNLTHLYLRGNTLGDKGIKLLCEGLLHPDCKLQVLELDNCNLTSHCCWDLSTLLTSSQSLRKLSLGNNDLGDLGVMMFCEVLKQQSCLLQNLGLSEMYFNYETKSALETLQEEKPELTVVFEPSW

SMILES | IC50 (NLRP3 inflammasome [1]; [3]) | IC50 (NLRP3 inflammasome [1]; [5]) | IC50 (PBMCs; Homo sapiens, PBMC) | IC50 (PBMCs; [6]) | other results
Cn1ccc(S(=N)(=O)NC(=O)Nc2c3c(cc4c2CCC4)CCC3)n1 (stereo not shown) | 1000 to 10000 nM |  | < 100 nM |  | IC50 (TNFα; [4]): > 10000 nM
CN[C@@H]1COc2c(S(=N)(=O)NC(=O)Nc3c(C(C)C)cc(F)cc3C(C)C)cnn2C1 (stereo partly shown) | 100 to 1000 nM |  | 100 to 1000 nM |  | IC50 (TNFα; [4]): > 10000 nM
NS(=O)(=NC(=O)Nc1c2c(c(F)c3c1CCC3)CCC2)c1cnn2c1OCC2 (stereo not shown) | < 100 nM |  | 1000 to 10000 nM |  | IC50 (TNFα; [4]): > 10000 nM
NS(=O)(=NC(=O)Nc1c2c(c(F)c3c1CCC3)CCC2)c1cnn2c1OCCCC2 (stereo not shown) | < 100 nM |  | > 10000 nM |  | IC50 (TNFα; [4]): > 10000 nM
N=S(=O)(NC(=O)Nc1c2c(cc3c1CCC3)CCC2)c1cnn2c1OC[C@@H](NCCF)C2 (stereo partly shown) | < 100 nM |  | 100 to 1000 nM |  | IC50 (TNFα; [4]): > 10000 nM
NS(=O)(=NC(=O)Nc1c2c(c(C(=O)O)c3c1CCC3)CCC2)c1cnn2c1OCCC2 (stereo not shown) | > 10000 nM |  | > 10000 nM |  | IC50 (TNFα; [4]): > 10000 nM
CNS(=O)(=NC(=O)Nc1c2c(cc3c1CCC3)CCC2)c1cnn2c1OCCC2 (racemic) [Example 9, N′-((1,2,3,5,6,7-hexahydro-s-indacen-4-yl)carbamoyl)-N-methyl-6,7-dihydro-5H-pyrazolo[5,1-b][1,3]oxazine-3-sulfonimidamide] |  | > 10000 nM | > 10000 nM |  | 
NS(=O)(=NC(=O)Nc1c2c(cc3c1CCC3)CCC2)c1cnn(CC2CC2)c1 (racemic) [Example 10, 1-(cyclopropylmethyl)-N′-((1,2,3,5,6,7-hexahydro-s-indacen-4-yl)carbamoyl)-1H-pyrazole-4-sulfonimidamide] |  | 350 nM | 360 nM |  | 
Cn1ccc(S(N)(=O)=NC(=O)Nc2c3c(cc4c2CCC4)CCC3)n1 (racemic) [Example 12, N-((1,2,3,5,6,7-hexahydro-s-indacen-4-yl)carbamoyl)-1-methyl-1H-pyrazole-3-sulfonimidamide] |  | 1390 nM | 6 nM |  | IC50 (TNFα; PBMC): > 10000 nM
CO[C@@H]1COc2c(S(N)(=O)=NC(=O)Nc3c(C(C)C)cc(F)cc3C(C)C)cnn2C1 (mixture of isomers) [Example 15, (6S)—N′-((4-fluoro-2,6-diisopropylphenyl)carbamoyl)-6-methoxy-6,7-dihydro-5H-pyrazolo[5,1-b][1,3]oxazine-3-sulfonimidamide] |  | 300 nM | 95 nM |  | IC50 (TNFα; PBMC): > 10000 nM
CC(C)c1cc(F)cc(C(C)C)c1NC(=O)N=S(N)(=O)c1cnn2c1OCCC2 (single isomer, unassigned) [Example 7] |  | 290 nM | 3 nM |  | 
CC(C)c1cc(F)cc(C(C)C)c1NC(=O)N=S(N)(=O)c1cnn2c1OCCC2 (single isomer, unassigned) [Example 8] |  | 1000 nM |  | 2 nM | IC50 (NLRP3 inflammasome [2]): 9400 nM
NS(=O)(=NC(=O)Nc1c2c(c(F)c3c1CCC3)CCC2)c1cnn2c1OCCC2 (single isomer, unassigned) [Example 22] |  | 95 nM |  | 66 nM | IC50 (NLRP3 inflammasome [2]): 150 nM
CNC1COc2c(S(N)(=O)=NC(=O)Nc3c4c(cc5c3CCC5)CCC4)cnn2C1 (single isomer, unassigned) [Example 25] |  | 300 nM |  | 8 nM | 
CNC1COc2c(S(N)(=O)=NC(=O)Nc3c(C(C)C)cc(F)cc3C(C)C)cnn2C1 (single isomer, unassigned) [Example 28] |  | > 10000 nM |  |  | IC50 (NLRP3 inflammasome [2]): 4400 nM; IC50 (TNFα; read-out: PBMC TNFα IC50): > 10000 nM
NS(=O)(=NC(=O)Nc1c2c(cc3c1CCC3)CCC2)c1cnn2c1OCC(NCCF)C2 (single isomer, unassigned) [Example 35] |  | 180 nM | 250 nM |  | 

More lines, main results first:

IC50 (NLRP3 inflammasome [1]; [3]) | IC50 (NLRP3 inflammasome [1]; [5]) | SMILES | IC50 (PBMCs; Homo sapiens, PBMC) | IC50 (PBMCs; [6]) | other results
 | > 10000 nM | NS(=O)(=NC(=O)Nc1c2c(c(C(=O)O)c3c1CCC3)CCC2)c1cnn2c1OCCC2 (racemic) [Example 37, 8-(3-(6,7-dihydro-5H-pyrazolo[5,1-b][1,3]oxazine-3-sulfonimidoyl)ureido)-1,2,3,5,6,7-hexahydro-s-indacene-4-carboxylic acid] | > 10000 nM |  | IC50 (NLRP3 inflammasome [2]): > 20000 nM
 | 50 nM | NS(=O)(=NC(=O)Nc1c2c(cc3c1CCC3)CCC2)c1cnn2c1OCC(NCCF)C2 (single isomer, unassigned) [Example 36] |  | 170 nM | IC50 (NLRP3 inflammasome [2]): 66 nM
 | 2030 nM | COC1CN(C2COc3c(S(N)(=O)=NC(=O)Nc4c5c(cc6c4CCC6)CCC5)cnn3C2)C1 (single isomer, unassigned) [Example 38] |  | 1160 nM | IC50 (NLRP3 inflammasome [2]): 1500 nM
 | 19 nM | COC1CN(C2COc3c(S(N)(=O)=NC(=O)Nc4c5c(cc6c4CCC6)CCC5)cnn3C2)C1 (single isomer, unassigned) [Example 39] |  | 150 nM | 
 | 4.9 nM | CNC1COc2c(S(N)(=O)=NC(=O)Nc3c4c(c(F)c5c3CCC5)CCC4)cnn2C1 (single isomer, unassigned) [Example 40] |  | 3 nM | IC50 (NLRP3 inflammasome [2]): 8.8 nM
 | 6800 nM | CNC1COc2c(S(N)(=O)=NC(=O)Nc3c4c(c(F)c5c3CCC5)CCC4)cnn2C1 (single isomer, unassigned) [Example 41] |  | 1310 nM | IC50 (NLRP3 inflammasome [2]): 430 nM
> 10000 nM |  | CN[C@@H]1COc2c(S(=N)(=O)NC(=O)Nc3c(C(C)C)cc(F)cc3C(C)C)cnn2C1 (single isomer, unassigned) [drawing 676] |  |  | IC50 (TNFα; read-out: PBMC TNF α IC50): > 10000 nM
< 100 nM |  | CO[C@@H]1COc2c(S(=N)(=O)NC(=O)Nc3c4c(cc5c3CCC5)CCC4)cnn2C1 (stereo partly shown) [drawing 650] |  | < 100 nM | 
100 to 1000 nM |  | CC(C)c1cc(F)cc(C(C)C)c1NC(=O)NS(=N)(=O)c1cnn2c1OCCC2 (stereo not shown) [drawing 651] |  | 100 to 1000 nM | 
100 to 1000 nM |  | CC(C)c1cc(F)cc(C(C)C)c1NC(=O)NS(=N)(=O)c1cnn2c1OCCC2 (stereo not shown) [drawing 655] | < 100 nM |  | 
100 to 1000 nM |  | CC(C)c1cc(F)cc(C(C)C)c1NC(=O)NS(=N)(=O)c1cnn2c1OCCC2 (stereo not shown) [drawing 656] |  | < 100 nM | 
